Converted amounts (≈) assume the structure as drawn.
Test system: 3T3-L1 mouse adipocyte cells
Test: Adipogenesis inhibition, Oil Red-O staining of adipocytes
Type: cell-based
Conditions: Table 1, 3T3-L1 mouse adipocytes, OD 492 nm, read-out: Adipogenesis inhibitory activity (IC50)
Text: Adipogenesis, or the development of fat cells from preadipocytes, has been one of the most intensely studied models for obesity. A fat cell develops as internally produced lipid droplets coalesce into a single large mass. The in vitro adipogenesis inhibitory model can recapitulate most of the critical aspects of fat cell formation in vivo.
A common assay to measure adipocyte differentiation in cell culture is with the dye Oil Red-O, which is a lipid-soluble red dye. Since terminal differentiation of adipocytes is accompanied by the accumulation of great amounts of lipids in large cytoplasmic vesicles, a strong, bright, staining of the cytoplasm with this dye is a reliable indicator of adipocyte differentiation.
3T3-L1 mouse adipocyte cells are seeded at a density of 5000 cell/200 μl of adipocyte induction medium in a 96 well plate. After 48 hrs, sample is added. After 72 hrs, the medium is changed to adipocyte progression medium along with the sample. The medium is similarly changed after another 48 hours. The plates are washed gently after 48 hrs with 100 μl of PBS. […] The OD reading is taken at 492 nm in microplate reader.
The results are expressed as IC50 values using Graphpad prism software. The percentage of inhibition of adipogenesis is calculated as follows,
[formula] Where C—absorbance due to adipogenesis in untreated cells • T—absorbance due to adipogenesis in sample treated cells

SMILES | IC50
C=C(C)[C@@H](CC=C(C)C)C[C@@]12C[C@@H](CC=C(C)C)C(C)(C)[C@@](CC=C(C)C)(C(=O)C(C(=O)c3ccc(O)c(O)c3)=C1O)C2=O [Garcinol] | 0.2 µg/mL (≈ 0.332 µM)
COc1cc(C=Cc2ccc(O)cc2)cc(OC)c1 [Pterostilbene, 3,5-dimethoxy-4′-hydroxystilbene] | 13.3 µg/mL (≈ 52 µM)

Reference: US8329743B2, “Compositions and its use in treating obesity or inducing weight loss” (Sami Labs Limited, priority 2011, dated 2012)
